In patent US20240139211A1, “METHODS AND COMPOSITIONS FOR TREATING AMYOTROPHIC LATERAL SCLEROSIS” (Amylyx Pharmaceuticals, Inc., priority 2022, published 2024):

Tests used:
[1] = biological target: T1, MATE1 (Homo sapiens, UniProt Q96FL8); experiment: in vitro
T1 sequence (Q96FL8 1-570): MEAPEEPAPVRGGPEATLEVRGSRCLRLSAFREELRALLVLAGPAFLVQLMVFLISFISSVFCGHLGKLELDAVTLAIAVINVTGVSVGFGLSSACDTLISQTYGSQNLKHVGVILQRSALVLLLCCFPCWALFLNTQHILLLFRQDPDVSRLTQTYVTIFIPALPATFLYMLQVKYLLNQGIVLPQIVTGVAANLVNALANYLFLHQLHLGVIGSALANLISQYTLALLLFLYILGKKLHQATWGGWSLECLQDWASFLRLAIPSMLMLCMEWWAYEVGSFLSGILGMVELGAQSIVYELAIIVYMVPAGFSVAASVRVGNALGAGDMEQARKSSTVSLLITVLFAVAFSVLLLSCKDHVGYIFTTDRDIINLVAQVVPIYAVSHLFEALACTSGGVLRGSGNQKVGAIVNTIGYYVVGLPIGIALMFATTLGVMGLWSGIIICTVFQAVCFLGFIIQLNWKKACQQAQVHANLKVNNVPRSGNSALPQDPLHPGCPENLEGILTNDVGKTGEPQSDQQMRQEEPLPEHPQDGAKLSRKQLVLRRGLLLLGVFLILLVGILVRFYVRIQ

[2] = biological target: hrCYP2D6 (Homo sapiens, UniProt P10635); experiment: CYP reaction phenotyping with hrCYP2D6 (% remaining); assay type: in vitro ADME; conditions: for % Remaining of TA: hrCYP2D6 20 pmol CYP/mL, 5 μM TA, PB and TUDCA co-incubated
[3] = biological target: T2, hrCYP1A2 (Homo sapiens, UniProt P05177); experiment: CYP reaction phenotyping with hrCYP1A2 (% remaining); assay type: in vitro ADME; conditions: for % Remaining of TA: hrCYP1A2 20 pmol CYP/mL, 5 μM TA, PB and TUDCA co-incubated
T2 sequence (P05177 1-516): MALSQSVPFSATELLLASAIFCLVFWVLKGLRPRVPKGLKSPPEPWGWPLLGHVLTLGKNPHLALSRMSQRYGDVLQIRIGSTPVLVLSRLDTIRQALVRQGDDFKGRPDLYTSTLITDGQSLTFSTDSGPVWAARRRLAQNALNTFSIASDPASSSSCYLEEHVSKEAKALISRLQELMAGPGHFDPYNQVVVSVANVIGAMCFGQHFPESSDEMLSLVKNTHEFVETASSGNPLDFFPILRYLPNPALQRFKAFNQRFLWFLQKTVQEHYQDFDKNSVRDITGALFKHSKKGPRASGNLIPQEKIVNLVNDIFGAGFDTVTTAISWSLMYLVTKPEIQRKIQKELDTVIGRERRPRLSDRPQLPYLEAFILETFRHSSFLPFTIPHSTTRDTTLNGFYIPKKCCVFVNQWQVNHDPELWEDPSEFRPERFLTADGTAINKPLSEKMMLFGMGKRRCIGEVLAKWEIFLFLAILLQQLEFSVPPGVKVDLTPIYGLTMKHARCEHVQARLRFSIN

[4] = biological target: CYPs in human liver microsomes (HLM) (Homo sapiens, UniProt P10635); experiment: CYP reaction phenotyping in HLM with chemical inhibitors (% remaining); conditions: +NADPH +quinidine (CYP2D6)
[5] = biological target: CYPs in human liver microsomes (HLM) (Homo sapiens, UniProt P11712); experiment: as above; conditions: +NADPH +sulfaphenazole (CYP2C9)
[6] = biological target: CYPs in human liver microsomes (HLM) (Homo sapiens, UniProt P33261); experiment: as above; conditions: +NADPH +N3B (CYP2C19)
[7] = biological target: T3, CYPs in human liver microsomes (HLM) (Homo sapiens, UniProt P05177); experiment: as above; conditions: +NADPH +furafylline (CYP1A2), pre-incubated
T3 sequence (P05177 1-516): T2 sequence (P05177 1-516)

[8] = test system: CYPs in human liver microsomes (HLM); experiment: as above
[9] = biological target: T4, OAT1 (Homo sapiens, UniProt Q4U2R8); experiment: in vitro
T4 sequence (Q4U2R8 1-563): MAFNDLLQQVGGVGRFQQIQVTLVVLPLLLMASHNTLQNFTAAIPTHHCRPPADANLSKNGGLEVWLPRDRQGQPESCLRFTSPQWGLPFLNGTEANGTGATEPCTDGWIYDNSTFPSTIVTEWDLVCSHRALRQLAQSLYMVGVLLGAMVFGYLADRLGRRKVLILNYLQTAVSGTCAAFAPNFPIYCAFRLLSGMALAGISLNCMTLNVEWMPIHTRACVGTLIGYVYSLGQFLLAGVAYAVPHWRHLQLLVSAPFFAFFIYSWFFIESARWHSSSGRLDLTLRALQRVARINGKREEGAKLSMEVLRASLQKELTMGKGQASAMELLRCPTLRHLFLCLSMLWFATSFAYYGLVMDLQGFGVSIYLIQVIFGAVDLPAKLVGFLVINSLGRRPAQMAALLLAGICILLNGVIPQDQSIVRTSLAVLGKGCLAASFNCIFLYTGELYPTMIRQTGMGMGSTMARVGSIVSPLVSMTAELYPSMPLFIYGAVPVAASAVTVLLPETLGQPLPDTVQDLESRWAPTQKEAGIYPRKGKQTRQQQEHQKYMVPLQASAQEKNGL

[10] = Maximum Metabolism-1: +NADPH −inhibitor, pre-incubated, 10 min
[11] = Maximum Metabolism-1: +NADPH −inhibitor, pre-incubated, 20 min
[12] = Maximum Metabolism-1: +NADPH −inhibitor, pre-incubated, 30 min
[13] = Negative Control-1: −NADPH −inhibitor, pre-incubated, 5 min
[14] = Negative Control-1: −NADPH −inhibitor, pre-incubated, 10 min
[15] = Negative Control-1: −NADPH −inhibitor, pre-incubated, 20 min
[16] = Negative Control-1: −NADPH −inhibitor, pre-incubated, 30 min
[17] = Negative Control-1: −NADPH −inhibitor, pre-incubated, 60 min

hrCYP2D6, sequence (P10635 whole entry): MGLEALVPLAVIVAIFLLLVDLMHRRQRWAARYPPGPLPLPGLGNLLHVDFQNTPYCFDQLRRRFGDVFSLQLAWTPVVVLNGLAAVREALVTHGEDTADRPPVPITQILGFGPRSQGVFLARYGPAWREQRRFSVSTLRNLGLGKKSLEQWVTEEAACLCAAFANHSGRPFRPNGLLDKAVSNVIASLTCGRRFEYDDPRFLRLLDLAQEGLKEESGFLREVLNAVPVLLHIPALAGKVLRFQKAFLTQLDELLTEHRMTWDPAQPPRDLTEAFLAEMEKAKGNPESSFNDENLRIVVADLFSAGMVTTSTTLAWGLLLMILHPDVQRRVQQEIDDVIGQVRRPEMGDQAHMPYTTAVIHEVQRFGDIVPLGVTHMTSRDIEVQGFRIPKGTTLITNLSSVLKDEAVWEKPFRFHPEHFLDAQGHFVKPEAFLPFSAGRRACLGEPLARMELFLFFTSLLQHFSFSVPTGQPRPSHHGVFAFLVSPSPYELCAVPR
CYPs in human liver microsomes (HLM) (Homo sapiens, UniProt P10635), sequence (P10635 whole entry): as above
CYPs in human liver microsomes (HLM) (Homo sapiens, UniProt P33261), sequence (P33261 whole entry): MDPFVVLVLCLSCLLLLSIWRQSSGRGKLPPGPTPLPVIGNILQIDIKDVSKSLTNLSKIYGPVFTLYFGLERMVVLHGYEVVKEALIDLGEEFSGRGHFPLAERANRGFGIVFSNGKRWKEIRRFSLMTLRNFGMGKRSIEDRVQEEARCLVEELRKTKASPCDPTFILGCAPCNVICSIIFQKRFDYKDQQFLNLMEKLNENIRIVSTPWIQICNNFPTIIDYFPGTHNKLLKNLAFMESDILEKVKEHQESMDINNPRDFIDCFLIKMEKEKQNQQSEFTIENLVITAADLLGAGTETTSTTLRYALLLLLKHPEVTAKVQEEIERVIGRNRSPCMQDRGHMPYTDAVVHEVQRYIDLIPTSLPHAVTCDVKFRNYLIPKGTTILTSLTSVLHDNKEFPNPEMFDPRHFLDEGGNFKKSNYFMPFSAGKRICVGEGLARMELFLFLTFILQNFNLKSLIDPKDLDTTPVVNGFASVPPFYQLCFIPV
CYPs in human liver microsomes (HLM) (Homo sapiens, UniProt P11712), sequence (P11712 whole entry): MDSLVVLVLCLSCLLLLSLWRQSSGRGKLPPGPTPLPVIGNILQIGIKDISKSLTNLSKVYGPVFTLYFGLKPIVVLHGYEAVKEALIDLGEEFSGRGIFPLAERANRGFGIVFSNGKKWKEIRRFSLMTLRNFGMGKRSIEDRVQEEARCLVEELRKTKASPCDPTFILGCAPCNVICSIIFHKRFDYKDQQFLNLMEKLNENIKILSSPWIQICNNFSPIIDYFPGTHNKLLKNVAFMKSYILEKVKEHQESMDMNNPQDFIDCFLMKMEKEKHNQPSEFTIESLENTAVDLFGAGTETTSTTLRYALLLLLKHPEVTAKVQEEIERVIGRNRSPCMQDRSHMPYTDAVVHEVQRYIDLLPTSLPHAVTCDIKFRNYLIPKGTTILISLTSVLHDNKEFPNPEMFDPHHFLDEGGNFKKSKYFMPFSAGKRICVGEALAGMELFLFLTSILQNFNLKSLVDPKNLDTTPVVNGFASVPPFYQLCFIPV

For `C[C@H](CCC(=O)NCC(=O)O)[C@H]1CC[C@H]2[C@@H]3[C@@H](O)C[C@@H]4C[C@H](O)CC[C@]4(C)[C@H]3CC[C@]12C` [Glycoursodeoxycholic acid, glycoursodeoxycholic acid], the potency estimated from few doses [1] was > 100 µM.
With tauroursodeoxycholic acid [TUDCA] the “% Remaining of TA” value ([2]; 0 min) was 100%, the “% Remaining of TA” value ([2]; 5 min) was 98.4% and the “% Remaining of TA” value ([2]; 10 min) was 97.8%. For the same molecule, the “% Remaining of TA” value ([2]; 20 min) was 97.0%, the “% Remaining of TA” value ([2]; 30 min) was 99.2% and the “% Remaining of TA” value ([2]; 60 min) was 98.6%. For the same molecule, the “% Remaining of TA” value ([3]; 0 min) was 100%, the “% Remaining of TA” value ([3]; 5 min) was 98.0% and the “% Remaining of TA” value ([3]; 10 min) was 101%. For the same molecule, the “% Remaining of TA” value ([3]; 20 min) was 99.9%, the “% Remaining of TA” value ([3]; 30 min) was 103% and the “% Remaining of TA” value ([3]; 60 min) was 90.5%. For the same molecule, the “% remaining of TA in HLM” value ([4]; 10 min) was 110%, the “% remaining of TA in HLM” value ([4]; 20 min) was 99.7% and the “% remaining of TA in HLM” value ([4]; 60 min) was 87.2%. The “% remaining of TA in HLM” value ([5]; 10 min) was 96.9%, the “% remaining of TA in HLM” value ([5]; 20 min) was 92.8% and the “% remaining of TA in HLM” value ([5]; 30 min) was 95.0%. The “% remaining of TA in HLM” value ([5]; 60 min) was 95.3%, the “% remaining of TA in HLM” value ([6]; 5 min) was 106% and the “% remaining of TA in HLM” value ([6]; 10 min) was 93.0%. The “% remaining of TA in HLM” value ([6]; 20 min) was 93.1%, the “% remaining of TA in HLM” value ([6]; 30 min) was 92.1% and the “% remaining of TA in HLM” value ([6]; 60 min) was 94.5%. For the same molecule, the “% remaining of TA in HLM” value ([7]; 5 min) was 123%, the “% remaining of TA in HLM” value ([7]; 10 min) was 123% and the “% remaining of TA in HLM” value ([7]; 20 min) was 121%. For the same molecule, the “% remaining of TA in HLM” value ([7]; 30 min) was 120%, the “% remaining of TA in HLM” value ([7]; 60 min) was 128% and the “Metabolism by the major CYPs in HLM” value [8] was “neither PB nor TUDCA is metabolized”. The “% remaining of TA in HLM” value ([8]; +NADPH +ketoconazole (CYP3A), 10 min) was 110%, the “% remaining of TA in HLM” value ([8]; +NADPH +ketoconazole (CYP3A), 20 min) was 108% and the “% remaining of TA in HLM” value ([8]; +NADPH +ketoconazole (CYP3A), 30 min) was 94.1%. For the same molecule, the “% remaining of TA in HLM” value ([8]; Maximum Metabolism-1: +NADPH −inhibitor, pre-incubated, 5 min) was 112%, the “% remaining of TA in HLM” value [8, 10] was 126% and the “% remaining of TA in HLM” value [8, 11] was 123%. The “% remaining of TA in HLM” value [8, 12] was 121%, the “% remaining of TA in HLM” value ([8]; Maximum Metabolism-1: +NADPH −inhibitor, pre-incubated, 60 min) was 121% and the “% remaining of TA in HLM” value ([8]; Maximum Metabolism-2: +NADPH −inhibitor, 5 min) was 103%. For the same molecule, the “% remaining of TA in HLM” value ([8]; Maximum Metabolism-2: +NADPH −inhibitor, 10 min) was 103%, the “% remaining of TA in HLM” value ([8]; Maximum Metabolism-2: +NADPH −inhibitor, 20 min) was 103% and the “% remaining of TA in HLM” value ([8]; Maximum Metabolism-2: +NADPH −inhibitor, 30 min) was 102%. For the same molecule, the “% remaining of TA in HLM” value ([8]; Maximum Metabolism-2: +NADPH −inhibitor, 60 min) was 96.9%, the “% remaining of TA in HLM” value [8, 13] was 117% and the “% remaining of TA in HLM” value [8, 14] was 129%. The “% remaining of TA in HLM” value [8, 15] was 119%, the “% remaining of TA in HLM” value [8, 16] was 130% and the “% remaining of TA in HLM” value [8, 17] was 132%. The “% remaining of TA in HLM” value ([8]; Negative Control-2: −NADPH −inhibitor, 5 min) was 104%, the “% remaining of TA in HLM” value ([8]; Negative Control-2: −NADPH −inhibitor, 10 min) was 104% and the “% remaining of TA in HLM” value ([8]; Negative Control-2: −NADPH −inhibitor, 20 min) was 105%. The “% remaining of TA in HLM” value ([8]; Negative Control-2: −NADPH −inhibitor, 30 min) was 106% and the “% remaining of TA in HLM” value ([8]; Negative Control-2: −NADPH −inhibitor, 60 min) was 106%.
With `O=C(O)CCCc1ccccc1` [PB, sodium phenylbutyrate] the potency estimated from few doses [9] was < 25 µM, the “% remaining after 60 minutes” value ([2]; human, 1 h, 5 µM, pH 7.4) was “greater than 90%” and the “% remaining after 60 minutes” value ([3]; human, 1 h, 5 µM, pH 7.4) was “greater than 90%”. For the same molecule, the “% remaining of TA in HLM” value ([4]; 20 min) was 97.5%, the “% remaining of TA in HLM” value ([4]; 60 min) was 98.8% and the “% remaining of TA in HLM” value ([5]; 5 min) was 103%. The “% remaining of TA in HLM” value ([5]; 20 min) was 98.5%, the “% remaining of TA in HLM” value ([5]; 30 min) was 99.6% and the “% remaining of TA in HLM” value ([5]; 60 min) was 97.6%. The “% remaining of TA in HLM” value ([6]; 5 min) was 101%, the “% remaining of TA in HLM” value ([6]; 20 min) was 101% and the “% remaining of TA in HLM” value ([6]; 30 min) was 101%. The “% remaining of TA in HLM” value ([6]; 60 min) was 101%, the “% remaining of TA in HLM” value ([7]; 5 min) was 116% and the “% remaining of TA in HLM” value ([7]; 10 min) was 131%. For the same molecule, the “% remaining of TA in HLM” value ([7]; 20 min) was 125%, the “% remaining of TA in HLM” value ([7]; 30 min) was 127% and the “% remaining of TA in HLM” value ([7]; 60 min) was 128%. The “Metabolism by the major CYPs in HLM” value [8] was “neither PB nor TUDCA is metabolized”, the “% remaining of TA in HLM” value ([8]; +NADPH +ketoconazole (CYP3A), 60 min) was 90.6% and the “% remaining of TA in HLM” value [8, 10] was 118%. For the same molecule, the “% remaining of TA in HLM” value [8, 11] was 113%, the “% remaining of TA in HLM” value [8, 12] was 110% and the “% remaining of TA in HLM” value [8, 13] was 109%. For the same molecule, the “% remaining of TA in HLM” value [8, 14] was 114%, the “% remaining of TA in HLM” value [8, 15] was 113% and the “% remaining of TA in HLM” value [8, 16] was 112%. The “% remaining of TA in HLM” value [8, 17] was 115% and the potency estimated from few doses [1] was < 250 µM.
For `O=C(O)Cc1ccccc1` [Phenylacetic acid, phenylacetic acid], the potency estimated from few doses [9] was < 750 µM.
